What follows are molecules tested against T1, Sodium/iodide cotransporter (Rattus norvegicus, UniProt Q63008) (assay: Inhibition of sodium iodide symporter in rat FRTL5 cells assessed as decrease in [125I]-sodium iodide uptake after 60 mins by scintillation counting method).
T1 sequence (Q63008 whole entry): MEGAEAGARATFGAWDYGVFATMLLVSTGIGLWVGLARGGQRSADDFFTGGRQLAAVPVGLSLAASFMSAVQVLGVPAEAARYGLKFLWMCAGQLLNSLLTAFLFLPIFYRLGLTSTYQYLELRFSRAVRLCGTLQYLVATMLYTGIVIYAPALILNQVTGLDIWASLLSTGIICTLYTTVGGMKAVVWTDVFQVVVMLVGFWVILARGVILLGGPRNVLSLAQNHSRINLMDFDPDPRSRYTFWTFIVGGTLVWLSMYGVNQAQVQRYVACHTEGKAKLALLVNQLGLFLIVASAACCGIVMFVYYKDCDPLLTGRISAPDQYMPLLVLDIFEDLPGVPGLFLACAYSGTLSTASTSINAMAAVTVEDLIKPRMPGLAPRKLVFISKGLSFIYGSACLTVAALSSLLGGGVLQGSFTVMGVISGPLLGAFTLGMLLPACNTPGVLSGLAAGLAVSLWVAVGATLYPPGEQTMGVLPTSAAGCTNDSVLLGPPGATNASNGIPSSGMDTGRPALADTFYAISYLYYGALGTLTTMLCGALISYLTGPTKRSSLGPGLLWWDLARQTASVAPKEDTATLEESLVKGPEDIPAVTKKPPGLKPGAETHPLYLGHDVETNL
Assay type: cell-based, FRTL-5

Row | SMILES | IC50 [nM]
1 | Brc1cccc(C2NCCc3c2[nH]c2ccccc32)c1 (configuration not stated) | 400
2 | O=[N+]([O-])c1cccc(C2NCCc3c2[nH]c2ccccc32)c1 (configuration not stated) | 300

What follows are molecules tested against T1, Sodium/iodide cotransporter (assay: Inhibition of sodium iodide symporter in rat FRTL5 cells assessed as decrease in sodium iodide uptake after 60 mins by scintillation counting method).
Assay type: cell-based, FRTL-5

Row | SMILES | IC50 [nM]
3 | N#CS [THIOCYANIC ACID] | 14000
4 | F[P-](F)(F)(F)(F)F.[Na+] | 9
5 | F[B-](F)(F)F | 750
6 | [O-][Cl+3]([O-])([O-])O [PERCHLORATE] | 140
7 | O=[N+]([O-])O | 250000

— ChEMBL document CHEMBL3880389, “Heterocyclic compounds as inhibitors of the sodium iodide symporter” (2014)
